Test results as given in PMC9150124, “Design of a Potent, Selective, and Brain-Penetrant Inhibitor of Wnt-Deactivating Enzyme Notum by Optimization of a Crystallographic Fragment Hit” (Journal of Medicinal Chemistry, 2022).

Assays:
Test in all cases: SelectScreen kinase profiling, SSBK ZLyte SP Technology
Type in all cases: biochemical
[1] = biological target: kinase named in conditions (Homo sapiens, UniProt P21802); conditions: FGFR2, 10 μM
Procedure: (§1) Kinase selectivity screening was performed by Thermo Fisher Scientific (Paisley, U.K.) in their SelectScreen Biochemical Kinase Profiling Service. Assay information and data are presented in the Supporting Information.
(§2) Kinase selectivity screening was performed by ThermoFisher Scientific (Paisley, U.K.) in their SelectScreenTM
(§3) Biochemical Kinase Profiling service .

[2] = biological target: kinase named in conditions (Homo sapiens, UniProt Q9Y6M4); conditions: CSNK1G3 (CK1 gamma 3), 10 μM
Procedure: as §1, §2, §3

[3] = biological target: kinase named in conditions (Homo sapiens, UniProt P08069); conditions: IGF1R, 10 μM
Chain of kinase named in conditions (Homo sapiens, UniProt P08069) (P08069 31-1367): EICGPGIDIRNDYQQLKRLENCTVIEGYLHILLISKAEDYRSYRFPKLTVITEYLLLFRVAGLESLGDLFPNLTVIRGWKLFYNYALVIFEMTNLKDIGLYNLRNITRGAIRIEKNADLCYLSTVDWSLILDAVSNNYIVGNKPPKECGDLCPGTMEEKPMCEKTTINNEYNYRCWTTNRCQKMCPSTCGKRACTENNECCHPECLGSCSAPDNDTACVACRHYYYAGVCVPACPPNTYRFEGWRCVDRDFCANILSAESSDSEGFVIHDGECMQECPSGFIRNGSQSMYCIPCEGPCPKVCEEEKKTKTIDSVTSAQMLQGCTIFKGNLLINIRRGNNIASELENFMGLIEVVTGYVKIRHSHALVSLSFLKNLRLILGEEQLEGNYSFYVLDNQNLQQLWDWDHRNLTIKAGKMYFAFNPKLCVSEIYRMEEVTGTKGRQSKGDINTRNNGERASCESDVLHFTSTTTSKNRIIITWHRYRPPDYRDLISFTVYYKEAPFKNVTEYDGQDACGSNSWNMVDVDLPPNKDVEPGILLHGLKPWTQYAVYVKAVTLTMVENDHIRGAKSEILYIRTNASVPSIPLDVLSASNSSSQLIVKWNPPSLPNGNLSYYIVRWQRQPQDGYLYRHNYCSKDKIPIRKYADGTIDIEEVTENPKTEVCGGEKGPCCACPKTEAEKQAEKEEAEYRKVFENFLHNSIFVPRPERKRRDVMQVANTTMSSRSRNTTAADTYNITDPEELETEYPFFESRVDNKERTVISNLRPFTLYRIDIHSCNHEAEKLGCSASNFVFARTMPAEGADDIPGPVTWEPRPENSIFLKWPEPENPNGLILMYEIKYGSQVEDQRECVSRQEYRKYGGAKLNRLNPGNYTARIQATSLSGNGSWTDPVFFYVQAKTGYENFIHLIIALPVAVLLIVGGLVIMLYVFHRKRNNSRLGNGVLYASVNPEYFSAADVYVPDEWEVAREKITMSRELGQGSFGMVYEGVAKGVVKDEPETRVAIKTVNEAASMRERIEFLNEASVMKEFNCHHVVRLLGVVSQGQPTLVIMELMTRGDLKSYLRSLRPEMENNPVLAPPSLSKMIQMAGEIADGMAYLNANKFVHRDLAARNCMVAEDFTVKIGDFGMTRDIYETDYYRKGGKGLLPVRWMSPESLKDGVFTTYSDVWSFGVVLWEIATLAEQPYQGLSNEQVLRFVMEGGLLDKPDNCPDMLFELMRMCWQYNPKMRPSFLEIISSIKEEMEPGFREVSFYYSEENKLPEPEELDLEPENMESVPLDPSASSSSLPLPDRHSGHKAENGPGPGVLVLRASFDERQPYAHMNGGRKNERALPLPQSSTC
Procedure: as §1, §2, §3

[4] = biological target: kinase named in conditions (Homo sapiens, UniProt Q8TD19); conditions: NEK9, 10 μM
Procedure: as §1, §2, §3

[5] = biological target: kinase named in conditions (Homo sapiens, UniProt P68400); conditions: CSNK2A1 (CK2 alpha 1), 10 μM
Procedure: as §1, §2, §3

[6] = biological target: kinase named in conditions (Homo sapiens, UniProt P78362); conditions: SRPK2, 10 μM
Procedure: as §1, §2, §3

[7] = biological target: kinase named in conditions (Homo sapiens, UniProt P11309); conditions: PIM1, 10 μM
Procedure: as §1, §2, §3

[8] = biological target: kinase named in conditions (Homo sapiens, UniProt P16591); conditions: FER, 10 μM
Procedure: as §1, §2, §3

[9] = biological target: kinase named in conditions (Homo sapiens, UniProt P42345); conditions: FRAP1 (mTOR), 10 μM
Procedure: as §1, §2, §3

[10] = biological target: kinase named in conditions (Homo sapiens, UniProt Q13131)
Chain of kinase named in conditions (Homo sapiens, UniProt Q13131) (Q13131 whole entry): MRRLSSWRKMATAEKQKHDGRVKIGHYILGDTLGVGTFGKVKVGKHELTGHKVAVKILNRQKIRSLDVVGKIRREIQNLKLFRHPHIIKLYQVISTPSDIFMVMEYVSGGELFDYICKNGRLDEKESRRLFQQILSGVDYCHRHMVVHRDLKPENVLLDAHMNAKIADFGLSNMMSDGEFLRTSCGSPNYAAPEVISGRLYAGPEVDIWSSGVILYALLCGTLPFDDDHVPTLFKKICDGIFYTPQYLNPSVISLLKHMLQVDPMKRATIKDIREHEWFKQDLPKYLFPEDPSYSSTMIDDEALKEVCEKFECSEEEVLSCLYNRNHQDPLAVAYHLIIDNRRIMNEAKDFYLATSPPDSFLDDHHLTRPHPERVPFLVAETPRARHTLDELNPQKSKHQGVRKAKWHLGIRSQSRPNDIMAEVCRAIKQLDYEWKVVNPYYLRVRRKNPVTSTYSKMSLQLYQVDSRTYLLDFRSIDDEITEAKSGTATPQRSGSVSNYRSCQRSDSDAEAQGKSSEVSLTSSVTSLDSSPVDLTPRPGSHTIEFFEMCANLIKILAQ
Procedure: as §1, §2, §3

[11] = biological target: kinase named in conditions (Homo sapiens, UniProt P04626); conditions: ERBB2 (HER2), 10 μM
Procedure: as §1, §2, §3

[12] = biological target: kinase named in conditions (Homo sapiens, UniProt P36888); conditions: FLT3, 10 μM
Procedure: as §1, §2, §3

[13] = biological target: kinase named in conditions (Homo sapiens, UniProt P00533, L861Q); conditions: EGFR (ErbB1) L861Q, 10 μM
Procedure: as §1, §2, §3

[14] = biological target: kinase named in conditions (Homo sapiens, UniProt P06213); conditions: INSR, 10 μM
Procedure: as §1, §2, §3

[15] = biological target: kinase named in conditions (Homo sapiens, UniProt P07333); conditions: CSF1R (FMS), 10 μM
Procedure: as §1, §2, §3

[16] = biological target: kinase named in conditions (Homo sapiens, UniProt O75914); conditions: PAK3, 10 μM
Chain of kinase named in conditions (Homo sapiens, UniProt O75914) (O75914 whole entry): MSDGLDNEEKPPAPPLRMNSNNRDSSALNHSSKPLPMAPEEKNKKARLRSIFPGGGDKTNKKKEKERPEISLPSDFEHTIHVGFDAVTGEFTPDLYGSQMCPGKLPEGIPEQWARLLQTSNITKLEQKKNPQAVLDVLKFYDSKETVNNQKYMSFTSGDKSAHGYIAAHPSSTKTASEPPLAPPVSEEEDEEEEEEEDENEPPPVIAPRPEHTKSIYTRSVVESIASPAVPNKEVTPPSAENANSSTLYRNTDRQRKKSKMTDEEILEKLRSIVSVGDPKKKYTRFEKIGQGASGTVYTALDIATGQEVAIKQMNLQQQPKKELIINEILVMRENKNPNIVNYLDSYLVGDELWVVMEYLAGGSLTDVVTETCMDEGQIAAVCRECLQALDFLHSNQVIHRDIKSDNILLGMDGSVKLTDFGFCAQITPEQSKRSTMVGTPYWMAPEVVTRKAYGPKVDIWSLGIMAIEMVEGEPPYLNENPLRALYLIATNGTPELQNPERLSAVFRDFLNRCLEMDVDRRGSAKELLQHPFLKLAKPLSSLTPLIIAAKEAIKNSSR
Procedure: as §1, §2, §3

[17] = biological target: kinase named in conditions (Homo sapiens, UniProt Q9HBY8); conditions: SGK2, 10 μM
Procedure: as §1, §2, §3

[18] = biological target: kinase named in conditions (Homo sapiens, UniProt Q14164); conditions: IKBKE (IKK epsilon), 10 μM
Procedure: as §1, §2, §3

[19] = biological target: kinase named in conditions (Homo sapiens, UniProt Q9UQM7); conditions: CAMK2A (CaMKII alpha), 10 μM
Procedure: as §1, §2, §3

[20] = biological target: kinase named in conditions (Homo sapiens, UniProt P51955); conditions: NEK2, 10 μM
Procedure: as §1, §2, §3

[21] = biological target: kinase named in conditions (Homo sapiens, UniProt Q16288); conditions: NTRK3 (TRKC), 10 μM
Chain of kinase named in conditions (Homo sapiens, UniProt Q16288) (Q16288 32-839): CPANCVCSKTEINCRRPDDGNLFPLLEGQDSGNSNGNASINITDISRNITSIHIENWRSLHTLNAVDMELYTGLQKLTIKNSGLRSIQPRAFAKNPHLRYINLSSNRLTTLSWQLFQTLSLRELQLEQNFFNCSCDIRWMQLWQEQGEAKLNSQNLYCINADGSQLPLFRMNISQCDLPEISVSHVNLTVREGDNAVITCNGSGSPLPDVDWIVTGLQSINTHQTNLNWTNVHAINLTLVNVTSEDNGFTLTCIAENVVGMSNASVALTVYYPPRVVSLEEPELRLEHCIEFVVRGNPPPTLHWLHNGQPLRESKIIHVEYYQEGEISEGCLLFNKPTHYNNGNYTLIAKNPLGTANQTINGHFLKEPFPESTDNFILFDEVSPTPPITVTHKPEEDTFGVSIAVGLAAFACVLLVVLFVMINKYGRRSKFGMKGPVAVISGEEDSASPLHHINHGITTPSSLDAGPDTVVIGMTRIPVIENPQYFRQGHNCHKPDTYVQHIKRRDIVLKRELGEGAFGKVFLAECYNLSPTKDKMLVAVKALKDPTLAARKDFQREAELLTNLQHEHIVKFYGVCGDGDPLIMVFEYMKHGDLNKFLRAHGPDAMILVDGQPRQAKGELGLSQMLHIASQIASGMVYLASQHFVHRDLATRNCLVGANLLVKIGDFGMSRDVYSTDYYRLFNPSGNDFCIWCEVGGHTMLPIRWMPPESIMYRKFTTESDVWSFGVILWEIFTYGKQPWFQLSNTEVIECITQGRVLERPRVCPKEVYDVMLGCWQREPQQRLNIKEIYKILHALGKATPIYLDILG
Procedure: as §1, §2, §3

[22] = biological target: kinase named in conditions (Homo sapiens, UniProt Q9H1R3); conditions: MYLK2 (skMLCK), 10 μM
Procedure: as §1, §2, §3

[23] = biological target: kinase named in conditions (Homo sapiens, UniProt P49137); conditions: MAPKAPK2, 10 μM
Procedure: as §1, §2, §3

[24] = biological target: kinase named in conditions (Homo sapiens, UniProt Q9BZL6); conditions: PRKD2 (PKD2), 10 μM
Procedure: as §1, §2, §3

[25] = biological target: kinase named in conditions (Homo sapiens, UniProt O96017); conditions: CHEK2 (CHK2), 10 μM
Procedure: as §1, §2, §3

[26] = biological target: kinase named in conditions (Homo sapiens, UniProt Q9H422); conditions: HIPK3 (YAK1), 10 μM
Procedure: as §1, §2, §3

[27] = biological target: kinase named in conditions (Homo sapiens, UniProt Q96GD4); conditions: AURKB (Aurora B), 10 μM
Procedure: as §1, §2, §3

[28] = biological target: kinase named in conditions (Homo sapiens, UniProt P54646)
Chain of kinase named in conditions (Homo sapiens, UniProt P54646) (P54646 whole entry): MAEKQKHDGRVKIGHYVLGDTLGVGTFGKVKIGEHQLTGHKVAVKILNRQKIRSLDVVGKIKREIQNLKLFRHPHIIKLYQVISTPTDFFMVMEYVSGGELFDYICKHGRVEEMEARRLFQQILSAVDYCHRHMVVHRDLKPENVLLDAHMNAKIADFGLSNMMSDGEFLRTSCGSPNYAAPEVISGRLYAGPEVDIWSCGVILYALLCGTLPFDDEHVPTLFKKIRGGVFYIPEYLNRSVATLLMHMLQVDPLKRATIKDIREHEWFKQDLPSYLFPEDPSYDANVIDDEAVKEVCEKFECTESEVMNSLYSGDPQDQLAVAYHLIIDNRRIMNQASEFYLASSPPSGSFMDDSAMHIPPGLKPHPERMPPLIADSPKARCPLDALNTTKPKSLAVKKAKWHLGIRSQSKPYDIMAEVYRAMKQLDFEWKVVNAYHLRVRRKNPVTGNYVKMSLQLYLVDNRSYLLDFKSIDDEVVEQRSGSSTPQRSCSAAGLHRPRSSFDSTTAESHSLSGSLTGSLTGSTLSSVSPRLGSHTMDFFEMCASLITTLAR
Procedure: as §1, §2, §3

[29] = biological target: kinase named in conditions (Homo sapiens, UniProt P00519, T315I); conditions: ABL1 T315I, 10 μM
Procedure: as §1, §2, §3

[30] = biological target: kinase named in conditions (Homo sapiens, UniProt P21802, N549H); conditions: FGFR2 N549H, 10 μM
Procedure: as §1, §2, §3

[31] = biological target: kinase named in conditions (Homo sapiens, UniProt Q96L34); conditions: MARK4, 10 μM
Procedure: as §1, §2, §3

[32] = biological target: kinase named in conditions (Homo sapiens, UniProt Q13153); conditions: PAK1, 10 μM
Chain of kinase named in conditions (Homo sapiens, UniProt Q13153) (Q13153 whole entry): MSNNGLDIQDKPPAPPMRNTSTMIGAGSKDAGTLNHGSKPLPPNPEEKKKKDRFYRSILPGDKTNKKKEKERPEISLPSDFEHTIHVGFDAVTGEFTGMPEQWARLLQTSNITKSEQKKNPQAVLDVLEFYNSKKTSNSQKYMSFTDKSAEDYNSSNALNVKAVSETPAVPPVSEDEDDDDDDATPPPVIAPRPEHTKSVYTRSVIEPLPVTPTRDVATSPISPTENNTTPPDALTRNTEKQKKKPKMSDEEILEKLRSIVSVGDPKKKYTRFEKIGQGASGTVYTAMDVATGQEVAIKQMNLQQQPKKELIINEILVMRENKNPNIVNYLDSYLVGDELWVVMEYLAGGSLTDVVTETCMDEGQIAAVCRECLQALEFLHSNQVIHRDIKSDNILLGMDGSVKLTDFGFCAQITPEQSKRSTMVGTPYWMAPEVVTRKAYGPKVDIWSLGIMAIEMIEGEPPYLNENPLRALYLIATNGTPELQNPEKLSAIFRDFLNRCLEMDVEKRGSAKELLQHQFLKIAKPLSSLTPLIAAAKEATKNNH
Procedure: as §1, §2, §3

[33] = biological target: kinase named in conditions (Homo sapiens, UniProt P43403); conditions: ZAP70, 10 μM
Chain of kinase named in conditions (Homo sapiens, UniProt P43403) (P43403 whole entry): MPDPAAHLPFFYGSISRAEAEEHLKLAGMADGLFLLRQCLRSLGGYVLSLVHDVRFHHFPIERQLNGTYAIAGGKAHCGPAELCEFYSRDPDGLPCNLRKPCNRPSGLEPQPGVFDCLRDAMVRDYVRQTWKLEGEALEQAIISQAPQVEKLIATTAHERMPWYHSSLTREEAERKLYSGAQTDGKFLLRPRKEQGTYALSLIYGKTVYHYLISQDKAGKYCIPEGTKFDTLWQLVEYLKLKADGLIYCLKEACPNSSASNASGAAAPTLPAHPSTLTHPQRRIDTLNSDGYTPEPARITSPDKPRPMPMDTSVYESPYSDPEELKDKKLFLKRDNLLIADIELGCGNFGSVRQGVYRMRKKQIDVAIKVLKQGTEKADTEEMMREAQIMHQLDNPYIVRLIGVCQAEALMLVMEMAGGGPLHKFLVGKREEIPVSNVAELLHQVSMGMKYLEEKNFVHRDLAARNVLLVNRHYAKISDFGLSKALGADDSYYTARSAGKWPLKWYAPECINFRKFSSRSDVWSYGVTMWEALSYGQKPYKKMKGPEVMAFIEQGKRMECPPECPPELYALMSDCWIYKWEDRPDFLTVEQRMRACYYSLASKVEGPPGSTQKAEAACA
Procedure: as §1, §2, §3

[34] = biological target: kinase named in conditions (Homo sapiens, UniProt Q13237); conditions: PRKG2 (PKG2), 10 μM
Procedure: as §1, §2, §3

## FC(F)(F)c1c(Cl)ccc(-n2ccnn2)c1Cl [8l, 1-(2,4-Dichloro-3-(trifluoromethyl)phenyl)-1H-1,2,3-triazole]
[1]
  inhibition at 10 µM: 11%
[2]
  inhibition at 10 µM: 0%
[3]
  inhibition at 10 µM: -4%
[4]
  inhibition at 10 µM: -3%
[5]
  inhibition at 10 µM: 5%
[6]
  inhibition at 10 µM: 7%
[7]
  inhibition at 10 µM: 6%
[8]
  inhibition at 10 µM: 2%
[9]
  inhibition at 10 µM: 4%
[10]; AMPK (A1/B2/G2), 10 μM
  inhibition at 10 µM: 6%
[10]; AMPK (A1/B2/G3), 10 μM
  inhibition at 10 µM: 6%
[10]; AMPK A1/B1/G1, 10 μM
  inhibition at 10 µM: 14%
[11]
  inhibition at 10 µM: 0%
[12]
  inhibition at 10 µM: 15%
[13]
  inhibition at 10 µM: 0%
[14]
  inhibition at 10 µM: 6%
[15]
  inhibition at 10 µM: 6%
[16]
  inhibition at 10 µM: 8%
[17]
  inhibition at 10 µM: 4%
[18]
  inhibition at 10 µM: 11%
[19]
  inhibition at 10 µM: -2%
[20]
  inhibition at 10 µM: -11%
[21]
  inhibition at 10 µM: 17%
[22]
  inhibition at 10 µM: 15%
[23]
  inhibition at 10 µM: 1%
[24]
  inhibition at 10 µM: 0%
[25]
  inhibition at 10 µM: 8%
[26]
  inhibition at 10 µM: 3%
[27]
  inhibition at 10 µM: 7%
[28]; AMPK (A2/B1/G2), 10 μM
  inhibition at 10 µM: -2%
[28]; AMPK (A2/B1/G3), 10 μM
  inhibition at 10 µM: 2%
[28]; AMPK (A2/B2/G3), 10 μM
  inhibition at 10 µM: 3%
[28]; AMPK A2/B1/G1, 10 μM
  inhibition at 10 µM: 14%
[29]
  inhibition at 10 µM: 0%
[30]
  inhibition at 10 µM: 17%
[31]
  inhibition at 10 µM: -2%
[32]
  inhibition at 10 µM: 23%
[33]
  inhibition at 10 µM: 24%
[34]
  inhibition at 10 µM: 8%
